# Results from article PMC2869246 (Antiviral research, 2010).
# “Also recorded” adds a separate entry of the source. Read-outs that look alike come from different tables or passages of the source.
# Assays:
# [1] = Cytotoxicity by neutral red dye uptake in HepG2.2.15 cultures; type: cell-based; details: human, HepG2.2.15 cells
# HBV [2] = experiment: HBV antiviral assay in HepG2.2.15 cells; type: cell-based, hepatitis B virus; details: for effect of addition of 10uM mevalonate on anti-HBV effect: 10uM mevalonate added
# HepG2.2.15 = experiment: Cytotoxicity by neutral red dye uptake in HepG2.2.15 cultures; type: cell-based; details: Table 2; monotherapy; neutral red uptake 24 hours after last treatment
# [3] = ref Reddy et al., 2008; cited from earlier work
# HBV [4] = details: cited from earlier work; for anti-HBV activity: unpublished results
# HBV surface antigen = details: Hep3B cell line with integrated S gene coding region; ref Lin et al., 2003; cited from earlier work
# [5] = Hepatitis B virus, HepG2.2.15, Table 2 (separate experiment), monotherapy
# [6] = Table 2 (separate experiment), monotherapy
smiles,measurement,setting,value
"Nc1ccn([C@@H]2CS[C@H](CO)O2)c(=O)n1 [LMV, lamivudine]",CC50 at 9 days,[1],2320 ± 102 µM
same,effect of addition of 10uM mevalonate on anti-HBV effect,HBV [2],did not affect the anti-HBV effectiveness; also recorded: nor did it reduce the anti-HBV effectiveness
same,EC50,HBV [2]; [5],0.048 ± 0.005 µM
same,EC90,HBV [2]; [5],0.146 ± 0.017 µM
CC(O)(CCO)CC(=O)O (stereo not drawn) [Mevalonate],CC50,HepG2.2.15,> 10 µM
same,EC50,HBV [2]; [6],> 10 µM
same,EC90,HBV [2]; [6],> 10 µM
same,anti-HBV effect,HBV [2]; monotherapy,did not display an anti-HBV effect
"Nc1ncnc2c1ncn2CCOCP(=O)(O)O [ADV, adefovir]",liver/serum ratios,[3],0.38
CC(C)n1c(/C=C/C(O)CC(O)CC(=O)O)c(-c2ccc(F)cc2)c2ccccc21 (stereo not drawn) [fluvastatin],anti-HBV activity,HBV [4]; ref Korba,unable to make other statins work against HBV
CC[C@H](C)C(=O)O[C@H]1C[C@@H](C)C=C2C=C[C@H](C)[C@H](CC[C@@H]3C[C@@H](O)CC(=O)O3)[C@H]21 [lovastatin],in vitro production of surface antigen inhibited,HBV surface antigen,60%
same,anti-HBV activity (HBV virions in cell culture),"HBV [4]; ref Lin et al., 2003",unable to make other statins work against HBV; also recorded: could not demonstrate reduction of HBV virions
CC[C@H](C)C(=O)O[C@H]1C[C@H](O)C=C2C=C[C@H](C)[C@H](CC[C@@H](O)C[C@@H](O)CC(=O)O)[C@H]21 [pravastatin],anti-HBV activity,HBV [4]; ref Bader,unable to make other statins work against HBV
"CCC(C)(C)C(=O)O[C@H]1C[C@@H](C)C=C2C=C[C@H](C)[C@H](CC[C@@H]3C[C@@H](O)CC(=O)O3)[C@H]21 [SIM, simvastatin]",CC50 at 9 days,[1],> 300 µM
same,effect of addition of 10uM mevalonate on anti-HBV effect,HBV [2],abolished the anti-HBV effect; also recorded: abolished the anti-HBV effectiveness
same,EC50,HBV [2]; [5],2.8 ± 0.3 µM
same,EC90,HBV [2]; [5],8.1 ± 0.7 µM
same,ED90,"HBV [2]; SIM alone, cell culture",8.6 µM
